# How the values were obtained:
# A2AR StaR = tested on: A2AR StaR; set-up: method as in PMID 18664584, PMID 20624408; conditions: cited from earlier work
# A2AR = molecular target: T1, A2AR (Homo sapiens, UniProt P29274); test: STD-NMR binding and competition on purified native A2AR
# T1 construct: Full length and wild type A2AR was expressed in yeast (Pichia pastoris) and Sf9; Strep-tag II (N); 8xHis (N); made in house; host or cells: Sf9 insect cells (baculovirus)
# [1] = tested on: Non-transfected HEK293 cells; test: cAMP assay in non-transfected HEK293 cells (negative control); format: cell-based, human; conditions: high concentrations of CGS-21680; probably endogenous A2AR
# [2] = molecular target: the molecule itself; test: SEC-MALS; peak 1 of the gel filtration of affinity-purified A2AR; Phenomenex Yarra SEC 3000-3 column, 20 °C, 0.3 ml/min; DDM/CHS micelles; dn/dc protein 0.185 ml/g, detergent 0.1618 ml/g
molecule,measurement,setting,value
CCNC(=O)[C@H]1O[C@@H](n2cnc3c(N)ncnc32)[C@H](O)[C@@H]1O [NECA],Binding of agonists to StaR preparation in comparison to the wild type protein,A2AR StaR,not able to bind correctly
"Cn1c(=O)c2c(ncn2C)n(C)c1=O [caffeine, reference compound]",STD binding signal,A2AR,bound to A2AR
same,STD binding signal in competition with ZM241385,A2AR,binding signal of caffeine disappears
CCNC(=O)[C@H]1O[C@@H](n2cnc3c(N)nc(NCCc4ccc(CCC(=O)O)cc4)nc32)[C@H](O)[C@@H]1O [CGS-21680],Binding of agonists to StaR preparation in comparison to the wild type protein,A2AR StaR,not able to bind correctly
same,cAMP production,[1],small increase in cAMP production
"Wild type, full length human adenosine A2A receptor (receptor, UniProt P29274 1-412, looked up, N-glycans attached (sites not given), adenosine A2A receptor, human, full length, wild type; Peak 2 of the gel filtration also holds a faster band consistent with a degradation product; also called native A2AR) MPIMGSSVYITVELAIAVLAILGNVLVCWAVWLNSNLQNVTNYFVVSLAAADIAVGVLAIPFAITISTGFCAACHGCLFIACFVLVLTQSSIFSLLAIAIDRYIAIRIPLRYNGLVTGTRAKGIIAICWVLSFAIGLTPMLGWNNCGQPKEGKNHSQGCGEGQVACLFEDVVPMNYMVYFNFFACVLVPLLLMLGVYLRIFLAARRQLKQMESQPLPGERARSTLQKEVHAAKSLAIIVGLFALCWLPLHIINCFTFFCPDCSHAPLWLMYLAIVLSHTNSVVNPFIYAYRIREFRQTFRKIIRSHVLRQQEPFKAAGTSARVLAAHGSDGEQVSLRLNGHPPGVWANGSAPHPERRPNGYALGLVSGGSAQESQGNTGLPDVELLSHELKGVCPEPPGLDDPLAQDGAGVS",stoichiometry N,[2],~5
